Where a name gives a salt, the structure may show the parent alone. Each block holds one compound with its values, some of them ahead of it.
How the values were obtained:
[1] = test system: rgRSV224 virus; assay: Antiviral activity: rgRSV224 (GFP) replication in HeLa cells; format: cell-based, respiratory syncytial virus (RSV); conditions: human respiratory syncytial virus, HeLa, 72 h, read-out: RSV HELA pEC50, rgRSV224 virus (MOI=1), HeLa cells, GFP expression, three days post-virus exposure (converted)
Method: Black 384-well clear-bottom microtiter plates (Corning, Amsterdam, The Netherlands) were filled via acoustic drop ejection using the echo liquid handler (Labcyte, Sunnyvale, Calif.), 200 nL of compound stock solutions (100% DMSO) were transferred to the assay plates, 9 serial 4-fold dilutions of compound were made, creating per quadrant the same compound concentration. The assay was initiated by adding 10 μL of culture medium to each well (RPMI medium without phenol red, 10% FBS-heat inactivated, 0.04% gentamycin (50 mg/mL). All addition steps are done by using a multidrop dispenser (Thermo Scientific, Erembodegem, Belgium). Next, rgRSV224 virus (MOI=1) diluted in culture medium was added to the plates, rgRSV224 virus is an engineered virus that includes an additional GFP gene (Hallak L K, Spillmann D. Collins P L, Peeples M E.
(§1) Glycosaminoglycan sulfation requirements for respiratory syncytial virus infection; Journal of virology (2000), 74(22), 10508-13) and was in-licensed from the NIH (Bethesda, Md., USA). Finally, 20 μL of a HeLa cell suspension (3,000 cells/well) were plated. Medium, virus- and mock-infected controls were included in each test. The wells contain 0.05% DMSO per volume. Cells were incubated at 37° C. in a 5% CO2 atmosphere. Three days post-virus exposure, viral replication was quantified by measuring GFP expression in the cells by an in house developed MSM laser microscope (Tibotec. Beerse, Belgium). The EC50 was defined as the 50% inhibitory concentration for GFP expression. In parallel, compounds were incubated for three days in a set of white 384-well microtiter plates (Corning) and the cytotoxicity of compounds in HeLa cells was determined by measuring the ATP content of the cells using the ATPlite kit (PerkinElmer, Zaventem, Belgium) according to the manufacturer's instructions. The CC50 was defined as the 50% concentration for cytotoxicity.

[2] = Cytotoxicity in HeLa cells (ATP content, ATPlite kit); format: cell-based; conditions: human, three days incubation, read-out: TOX HELA pCC50 (converted)
Method: as §1

melting point: 168 °C
Structure (SMILES): COCCCn1c(-c2ncccc2N2CCN(c3ccncc3)CC2)cc2ccccc21 (as salt: fumarate)

Structure (SMILES): Clc1cccc(-c2ncccc2N2CCN(c3ccncc3)CC2)c1 [Compound 3]
EC50 [1]: 0.55 µM | CC50 at 3 days [2]: > 100 µM

Structure (SMILES): c1coc(-c2ccc(-c3nccnc3N3CCN(c4ccncc4)CC3)cc2)c1 [Compound 55]
melting point: 153.75 °C | EC50 [1]: 0.794 µM | CC50 at 3 days [2]: 36.3 µM

Structure (SMILES): c1ccc(-c2ccc(-c3ncccc3N3CCN(c4ccncc4)CC3)cc2)cc1 [Compound 59]
melting point: 98 °C | EC50 [1]: 0.525 µM | CC50 at 3 days [2]: 10.7 µM

Structure (SMILES): OC1(c2ccccc2)CCN(c2ncccc2N2CCN(c3ccncc3)CC2)CC1 [Compound 73]
EC50 [1]: 0.631 µM | CC50 at 3 days [2]: 63.1 µM

Structure (SMILES): c1cnc(-c2ccncc2)c(N2CCN(c3ccncc3)CC2)c1 [Compound 20]
melting point: 166 °C | EC50 [1]: 0.871 µM | CC50 at 3 days [2]: > 100 µM

Structure (SMILES): CC(C)Oc1ccc(-c2ncccc2N2CCN(c3ccncc3)CC2)cn1 [Compound 19]
EC50 [1]: 0.525 µM | CC50 at 3 days [2]: 19.1 µM

Structure (SMILES): COc1cc(-c2ncccc2N2CCN(c3ccncc3)CC2)ccn1 [Compound 18]
EC50 [1]: 0.832 µM | CC50 at 3 days [2]: > 97.7 µM

Structure (SMILES): c1cnc(-c2ccc3ncsc3c2)c(N2CCN(c3ccncc3)CC2)c1 [Compound 45]
melting point: 196 °C | EC50 [1]: 0.155 µM | CC50 at 3 days [2]: > 100 µM

Structure (SMILES): OCCCn1ccc2cc(-c3ncccc3N3CCN(c4ccncc4)CC3)ccc21 [Compound 46]
melting point: 110 °C | EC50 [1]: 0.148 µM | CC50 at 3 days [2]: 52.5 µM

Structure (SMILES): Cn1ccc2cc(-c3ncccc3N3CCN(c4ccncc4)CC3)ccc21 [Compound 24]
melting point: 197 °C | EC50 [1]: 0.0724 µM | CC50 at 3 days [2]: 46.8 µM

Structure (SMILES): COc1cc(N2CCN(c3cccnc3-c3ccccc3)CC2)ccn1 [Compound 29]
EC50 [1]: 0.123 µM | CC50 at 3 days [2]: 0.257 µM

Structure (SMILES): CCn1ccc2cc(-c3ncccc3N3CCN(c4ccncc4)CC3)ccc21 [Compound 37]
melting point: 110 °C | EC50 [1]: 0.0309 µM | CC50 at 3 days [2]: 21.9 µM

Structure (SMILES): CN(C)c1ccc(-c2ncccc2N2CCN(c3ccncc3)CC2)cc1 [Compound 34]
EC50 [1]: 0.295 µM | CC50 at 3 days [2]: 74.1 µM

Structure (SMILES): c1cnc(-c2coc3ccccc23)c(N2CCN(c3ccncc3)CC2)c1 [Compound 38]
melting point: 210 °C | EC50 [1]: 0.132 µM | CC50 at 3 days [2]: 44.7 µM

Structure (SMILES): Cc1ccc(-c2ccc(-c3ncccc3N3CCN(c4ccncc4)CC3)cc2)o1 [Compound 65]
melting point: 230 °C | EC50 [1]: 0.191 µM | CC50 at 3 days [2]: 11 µM

Structure (SMILES): c1cnc(-c2ccc3occc3c2)c(N2CCN(c3ccncc3)CC2)c1 [Compound 27]
melting point: 192 °C | EC50 [1]: 0.135 µM | CC50 at 3 days [2]: 74.1 µM

Structure (SMILES): OCCCn1c(-c2ncccc2N2CCN(c3ccncc3)CC2)cc2ccccc21 [Compound 50]
melting point: 110 °C | EC50 [1]: 0.00661 µM | CC50 at 3 days [2]: > 100 µM

Structure (SMILES): CC(C)(O)c1ncccc1N1CCN(c2ccncc2)CC1 [Compound 70]
melting point: 163 °C | EC50 [1]: 19.1 µM | CC50 at 3 days [2]: > 100 µM

Structure (SMILES): c1cnc(N2CCN(c3ccncc3)CC2)c(N2CCN(c3ccncc3)CC2)c1 [Compound 69]
melting point: 186 °C | EC50 [1]: 0.933 µM | CC50 at 3 days [2]: 40.7 µM

Structure (SMILES): c1cnc(-c2ccc3c(c2)OCO3)c(N2CCN(c3ccncc3)CC2)c1 [Compound 9]
melting point: 187.8 °C | EC50 [1]: 0.692 µM | CC50 at 3 days [2]: > 100 µM

Structure (SMILES): c1cnc(-c2cccc3ncccc23)c(N2CCN(c3ccncc3)CC2)c1 [Compound 31]
melting point: 96 °C | EC50 [1]: 0.724 µM | CC50 at 3 days [2]: > 97.7 µM

Structure (SMILES): Cn1cc(-c2ccc(-c3ncccc3N3CCN(c4ccncc4)CC3)cc2)cn1 [Compound 66]
EC50 [1]: 0.933 µM | CC50 at 3 days [2]: 70.8 µM

Structure (SMILES): N#CCCn1ccc2cc(-c3ncccc3N3CCN(c4ccncc4)CC3)ccc21 [Compound 51]
EC50 [1]: 0.0741 µM | CC50 at 3 days [2]: 55 µM

Structure (SMILES): c1cnc(-c2cnc3ccccc3c2)c(N2CCN(c3ccncc3)CC2)c1 [Compound 33]
melting point: 182 °C | EC50 [1]: 0.219 µM | CC50 at 3 days [2]: > 100 µM

Structure (SMILES): c1cnc(-c2ccc3c(c2)CCO3)c(N2CCN(c3ccncc3)CC2)c1 [Compound 30]
melting point: 200 °C | EC50 [1]: 0.603 µM | CC50 at 3 days [2]: 1.7 µM

melting point: 262 °C
Structure (SMILES): c1cnc(-c2cccc3[nH]ccc23)c(N2CCN(c3ccncc3)CC2)c1

Structure (SMILES): COc1ccc(-c2ccc(-c3ncccc3N3CCN(c4ccncc4)CC3)cc2)cc1 [Compound 62]
melting point: 178 °C | EC50 [1]: 0.257 µM | CC50 at 3 days [2]: 11.5 µM

Structure (SMILES): CC1CN(c2cccnc2-c2ccc3ccn(C)c3c2)CCN1c1ccncc1 (stereo not drawn) [Compound 52]
EC50 [1]: 0.0135 µM | CC50 at 3 days [2]: 44.7 µM

Structure (SMILES): COc1ccc(-c2ncccc2N2CCN(c3ccncc3)CC2)cc1OC [Compound 16]
EC50 [1]: 0.977 µM | CC50 at 3 days [2]: > 100 µM

Structure (SMILES): Cn1c(-c2ncccc2N2CCN(c3ccncc3)CC2)cc2ccccc21 [Compound 40]
EC50 [1]: 0.0251 µM | CC50 at 3 days [2]: 53.7 µM

Structure (SMILES): Cn1ccc2ccc(-c3ncccc3N3CCN(c4ccncc4)CC3)cc21 [Compound 41]
melting point: 174.57 °C | EC50 [1]: 0.0115 µM | CC50 at 3 days [2]: 49 µM

Structure (SMILES): Clc1ccc(-c2ncccc2N2CCN(c3ccncc3)CC2)cc1Cl [Compound 11]
melting point: 159.5 °C | EC50 [1]: 0.269 µM | CC50 at 3 days [2]: 28.2 µM

Structure (SMILES): c1cnc(-c2cccc3ccccc23)c(N2CCN(c3ccncc3)CC2)c1 [Compound 26]
melting point: 90 °C | EC50 [1]: 0.0851 µM | CC50 at 3 days [2]: 7.41 µM

Structure (SMILES): c1coc(-c2ccc(-c3ncccc3N3CCN(c4ccncc4)CC3)cc2)c1 [Compound 56]
melting point: 224.32 °C | EC50 [1]: 0.0955 µM | CC50 at 3 days [2]: 19.5 µM

Structure (SMILES): Cn1ccc2cc(C(F)(F)F)c(-c3ncccc3N3CCN(c4ccncc4)CC3)cc21 [Compound 49]
melting point: 120 °C | EC50 [1]: 0.0676 µM | CC50 at 3 days [2]: 75.9 µM

Structure (SMILES): c1cnc(-c2cccc3cc[nH]c23)c(N2CCN(c3ccncc3)CC2)c1 [Compound 39]
melting point: 162 °C | EC50 [1]: 0.851 µM | CC50 at 3 days [2]: 55 µM

Structure (SMILES): CS(=O)(=O)Nc1ccc(-c2ncccc2N2CCN(c3ccncc3)CC2)cc1 [Compound 42]
melting point: 248 °C | EC50 [1]: 0.501 µM | CC50 at 3 days [2]: > 100 µM

Structure (SMILES): c1ccc(Oc2nccnc2N2CCN(c3ccncc3)CC2)cc1 [Compound 54]
melting point: 130 °C | EC50 [1]: 10.7 µM | CC50 at 3 days [2]: 87.1 µM

Structure (SMILES): c1cnc(-c2ccc3c(c2)OCCO3)c(N2CCN(c3ccncc3)CC2)c1 [Compound 22]
melting point: 88 °C | EC50 [1]: 0.537 µM | CC50 at 3 days [2]: 0.398 µM

Structure (SMILES): COc1ccc(C(O)c2ncccc2N2CCN(c3ccncc3)CC2)cc1 (stereo not drawn) [Compound 71]
EC50 [1]: 39.8 µM | CC50 at 3 days [2]: > 100 µM

Structure (SMILES): c1cnc(-c2cc3ccccc3s2)c(N2CCN(c3ccncc3)CC2)c1 [Compound 21]
melting point: 224 °C | EC50 [1]: 0.204 µM | CC50 at 3 days [2]: 10.5 µM

Structure (SMILES): Fc1cccc(-c2ncccc2N2CCN(c3ccncc3)CC2)c1 [Compound 12]
melting point: 184.88 °C | EC50 [1]: 0.871 µM | CC50 at 3 days [2]: > 100 µM

Structure (SMILES): Cn1ccc2c(-c3ncccc3N3CCN(c4ccncc4)CC3)cccc21 [Compound 43]
melting point: 170 °C | EC50 [1]: 0.0302 µM | CC50 at 3 days [2]: 45.7 µM

Structure (SMILES): c1cc(N2CCN(c3nccnc3-c3ccc4occc4c3)CC2)ccn1 [Compound 7]
EC50 [1]: 0.871 µM | CC50 at 3 days [2]: > 97.7 µM

Structure (SMILES): N#Cc1ccc(-c2ncccc2N2CCN(c3ccncc3)CC2)cc1 [Compound 28]
EC50 [1]: 0.589 µM | CC50 at 3 days [2]: > 100 µM

Structure (SMILES): Clc1ccc(-c2ncccc2N2CCN(c3ccncc3)CC2)cc1 [Compound 15]
EC50 [1]: 0.309 µM | CC50 at 3 days [2]: 0.891 µM

Structure (SMILES): COc1ccc(C(C)(O)c2ncccc2N2CCN(c3ccncc3)CC2)cc1 (stereo not drawn) [Compound 72]
EC50 [1]: 0.525 µM | CC50 at 3 days [2]: > 100 µM

Structure (SMILES): N#CCCn1ccc2ccc(-c3ncccc3N3CCN(c4ccncc4)CC3)cc21 [Compound 48]
EC50 [1]: 0.166 µM | CC50 at 3 days [2]: > 100 µM

Structure (SMILES): c1cnc(-c2ccc(C3CCCCC3)cc2)c(N2CCN(c3ccncc3)CC2)c1 [Compound 61]
EC50 [1]: 0.832 µM | CC50 at 3 days [2]: 3.47 µM

Structure (SMILES): Cn1nccc1-c1ccc(-c2ncccc2N2CCN(c3ccncc3)CC2)cc1 [Compound 67]
EC50 [1]: 0.407 µM | CC50 at 3 days [2]: 97.7 µM

Structure (SMILES): COc1ccc(C(O)(c2ccc(OC)cc2)c2ncccc2N2CCN(c3ccncc3)CC2)cc1 [Compound 64]
EC50 [1]: 0.0501 µM | CC50 at 3 days [2]: > 93.3 µM

Structure (SMILES): Clc1ccc(-c2ncccc2N2CCN(c3ccncc3)CC2)c(Cl)c1 [Compound 14]
EC50 [1]: 0.186 µM | CC50 at 3 days [2]: 40.7 µM

Structure (SMILES): COc1ccc(-c2ncccc2N2CCN(c3ccncc3)CC2)cc1 [Compound 5]
EC50 [1]: 0.427 µM | CC50 at 3 days [2]: > 100 µM

Structure (SMILES): c1ccc(Cc2nccnc2N2CCN(c3ccncc3)CC2)cc1 [Compound 53]
EC50 [1]: 3.39 µM | CC50 at 3 days [2]: 75.9 µM

From patent publication US10150761B2, “Substituted pyridine-piperazinyl analogues as RSV antiviral compounds” (Janssen Sciences Ireland UC, priority 2013, dated 2018)
